# Source: ChEMBL document CHEMBL6182899, “Shooting an Arrow against Convulsion: Novel Triazole-Grafted Benzenesulfonamide Derivatives as Carbonic Anhydrase II and VII Inhibitors” (J Med Chem, 2025)
# Organism: Mus musculus
# Experiment: animal or person
# Conditions: 24 h
smiles,measurement,value
CCCC(CCC)C(=O)O [VALPROIC ACID],survival at 100 mg/kg,80%
